# Test results taken from patent US20040266882A1 (priority 2001, published 2004).
# Where two headings read alike, the source gives them in different places.
# Assays:
# [1] = system: PANC-1, C6, MCF-7, U2OS and HT1080; settings: 48 hours; for reduction in cell survival, drug alone: non-resistant cell lines, 0.1 μg/ml DOX or 0.3 μg/ml VIN alone
# Procedure: Studies similar in general to those outlined in the previous section, were conducted with five cell lines selected for this task (PANC-1, C6, MCF-7, U2OS and HT1080), increasing the length of the experiment to 48 hours. The studies were done with DOX and with Vinblastine (VIN or VLB).
# C6 cells [2] = settings: cells loaded with 0.1 μg/ml DOX alone
# Procedure: Cells were grown in monolayers as described above. […] Control cells received media alone.
# C-26 cells = experiment: Solid tumor model, C-26 cells injected into footpad; type: in vivo, mice; settings: for solid tumor volume with time, single agent: fluoxetine 0.04 mg/kg daily orally alone, or MMC or DOX 5 mg/kg i.v. alone
# Procedure: In the solid tumor model, C-26 cells were injected into the animal's right-hind footpad.
# In the solid tumor model, Mitomycin C (MMC) and Doxorubicin (DOX), were tested separately, each at a dose of 5 mg/kg body.
# B16F10 cells = settings: for lung metastatic burden (lung weight increase, number of lung metastasis), single agent: fluoxetine 0.04 mg/kg daily orally alone, or Doxorubicin 10 mg/kg i.v. alone
# C6 cells [3] = system: C6 cells; parameters: effect on cell survival: dose or concentration left out as unconfirmed; settings: 24 hours; for enhancement in cell death by the combination treatment: vs drug alone
# PANC-1 cells = system: PANC-1 cells; parameters: effect on cell survival: dose or concentration left out as unconfirmed; settings: 24 hours; for enhancement in cell death by the combination treatment: vs drug alone
# fibrosarcoma cells = settings: doses equivalent to 20-40 mg/M^2; cited from earlier work
# [4] = system: concavalin A-stimulated normal lymphocytes; settings: doses equivalent to 20-40 mg/M^2; cited from earlier work
# [5] = daily dose; cited from earlier work
# [6] = […] μM fluoxetine + 0.1 μg/ml Doxorubicin
# [7] = […] μM fluoxetine + 30 μg/ml Mitomycin C
smiles,measurement,setting,value
COc1cccc2c1C(=O)c1c(O)c3c(c(O)c1C2=O)C[C@@](O)(C(=O)CO)C[C@@H]3O[C@H]1C[C@H](N)[C@H](O)[C@H](C)O1 [Doxorubicin],"reduction in cell survival, drug alone",[1],50%
same,depletion of intracellular DOX at 2 hours,C6 cells [2],100%
same,"solid tumor volume with time, single agent",C-26 cells,increases fast and exponentially
same,"lung metastatic burden (lung weight increase, number of lung metastasis), single agent",B16F10 cells,only a mild reduction
CO[C@@]12[C@H](COC(N)=O)C3=C(C(=O)C(C)=C(N)C3=O)N1C[C@@H]1N[C@@H]12 [Mitomycin C],"solid tumor volume with time, single agent",C-26 cells,increases fast and exponentially
CC[C@]1(O)C[C@@H]2CN(CCc3c([nH]c4ccccc34)[C@@](C(=O)OC)(c3cc4c(cc3OC)N(C)[C@H]3[C@@](O)(C(=O)OC)[C@H](OC(C)=O)[C@]5(CC)C=CCN6CC[C@]43[C@@H]65)C2)C1 [Vinblastine],"reduction in cell survival, drug alone",[1],50%
"CNCCC(Oc1ccc(C(F)(F)F)cc1)c1ccccc1 (stereo not shown) [fluoxetine, N-methyl 3-(p-trifluoromethylphenoxy)-3-phenylpropylamine]","toxicity to the cells, fluoxetine alone","[1]; fluoxetine alone, 0-15 μM",not toxic
same,prolongation of survival,"C-26 cells; DOX+CS vs saline, CS alone and DOX alone",3 fold
same,prolongation of survival,"C-26 cells; MMC+CS vs saline, CS alone and MMC alone",2 fold
same,"solid tumor size and growth, combination therapy",C-26 cells; fluoxetine 0.04 mg/kg daily orally + DOX 5 mg/kg i.v.,tumors are substantially smaller
same,"solid tumor size and growth, combination therapy",C-26 cells; fluoxetine 0.04 mg/kg daily orally + MMC 5 mg/kg i.v.,tumors are substantially smaller
same,"solid tumor volume with time, single agent",C-26 cells,increases fast and exponentially
same,enhancement in cell death by the combination treatment,C6 cells [3]; [6],3-4 fold
same,enhancement in cell death by the combination treatment,C6 cells [3]; [7],3-4 fold
same,effect on cell survival,C6 cells [3]; […] μM fluoxetine alone,does not affect cell survival at all
same,enhancement in cell death by the combination treatment,PANC-1 cells; [6],3-4 fold
same,enhancement in cell death by the combination treatment,PANC-1 cells; [7],3-4 fold
same,effect on cell survival,PANC-1 cells; […] μM fluoxetine alone,does not affect cell survival at all
same,effect on proliferation of fibrosarcoma cells,fibrosarcoma cells,promotes the proliferation
same,effect on proliferation of concavalin A-stimulated normal lymphocytes,[4],inhibits the proliferation
same,"known, acceptable safety limit",[5],80 mg/M^2
same,"survival, single agent","B16F10 cells; CS alone or CT alone, 75-days experiment",died rather early
same,"lung metastatic burden, combination treatment",B16F10 cells; fluoxetine 0.04 mg/kg daily orally + Doxorubicin 10 mg/kg i.v.,substantial reduction
same,"lung metastatic burden (lung weight increase, number of lung metastasis), single agent",B16F10 cells,highest metastatic burden
same,"survival, combination treatment","B16F10 cells; fluoxetine + Doxorubicin, 75-days experiment",long survivors
